Among the data in ChEMBL document CHEMBL1147800, “Osteoblast differentiation stimulating activity of biflavonoids from Cephalotaxus koreana” (2006) are Activity values, retold here.

Test [1] relates to Osteoblast. Put plainly: Increase in ALP activity in mouse primary osteoblasts at 20 uM relative to control. Format: functional.
Test [2] deals with Osteoblast. Briefly: Increase in ALP activity in mouse primary osteoblasts at 10 uM relative to control. In kind it is functional.
Test [3] has as its system Osteoblast. Briefly: Increase in ALP activity in mouse primary osteoblasts at 1 uM relative to control. In kind it is functional.
In test [4] the test system is Osteoblast. Briefly: Cytotoxicity against mouse primary osteoblasts at 20 uM by MTT assay. In kind it is functional, cell-based. (In general: Tetrazolium assays rely on reduction of a dye to a coloured formazan, in cell work by metabolically active cells.)
In test [5] the test system is Osteoblast. Put plainly: Increase in collagen synthesis in mouse primary osteoblasts. Format: functional, cell-based.
Test [6] deals with Osteoblast. Briefly: Effect on mineralization in mouse primary osteoblasts by measuring calcium deposition. In kind it is functional, cell-based.
For test [7], the system named is Osteoblast. Put plainly: Increase in collagen synthesis in mouse primary osteoblasts at 10 uM relative to control. In kind it is functional.

The source made the active and inactive calls. No cut-off for these calls is given here.

In the case of `COc1cc(O)c2c(=O)cc(-c3ccc(OC)c(-c4c(OC)cc(O)c5c(=O)cc(-c6ccc(O)cc6)oc45)c3)oc2c1`, the Activity in the test on Osteoblast [1] amounted to 122%; with Osteoblast [2] it was 129.7%; in the test with Osteoblast [3], 108.4%.
As to `COc1ccc(-c2cc(=O)c3c(O)cc(O)cc3o2)cc1-c1c(OC)cc(O)c2c(=O)cc(-c3ccc(O)cc3)oc12`, the Activity in the test with Osteoblast [1] came to 73.5%; with Osteoblast [2] it was 113%; with Osteoblast [3], 101.1%. Moreover, the outcome with Osteoblast [4] was Active.
Consider `COc1ccc(-c2cc(=O)c3c(O)cc(OC)c(-c4cc(-c5cc(=O)c6c(O)cc(OC)cc6o5)ccc4OC)c3o2)cc1`, for which the Activity with Osteoblast [1] is given as 149.5%; in the test with Osteoblast [2], 147.3%; in the test on Osteoblast [3], 105.1%. Besides, the outcome in the test on Osteoblast [5] and in the test on Osteoblast [6] was Active.
With `COc1ccc(-c2cc(=O)c3c(O)cc(O)cc3o2)cc1-c1c(O)cc(O)c2c(=O)cc(-c3ccc(O)cc3)oc12` [BILOBETIN], the Activity came out at 130.6% with Osteoblast [1], 131.9% in the test with Osteoblast [2] and 100.9% in the test with Osteoblast [3]. Moreover, the result with Osteoblast [6] was Active.
Consider `O=c1c(-c2ccc(O)cc2)coc2cc(O)ccc12` [DAIDZEIN], for which the results for the Activity in the test with Osteoblast [1], in the test with Osteoblast [2] and in the test on Osteoblast [3] were 128.1%, 132.8% and 107.8%, respectively.
Take `COc1cc(O)c2c(=O)cc(-c3ccc(OC)c(-c4c(O)cc(O)c5c(=O)cc(-c6ccc(O)cc6)oc45)c3)oc2c1` [GINKGETIN]: the Activity in the test with Osteoblast [1] is on record as 39.9%; with Osteoblast [2], 69.3%; in the test with Osteoblast [3], 116.8%. The outcome in the test with Osteoblast [4] was Active.
As to `COc1ccc(-c2cc(=O)c3c(O)cc(O)c(-c4cc(-c5cc(=O)c6c(O)cc(OC)cc6o5)ccc4OC)c3o2)cc1` [SCIADOPITISIN], the Activity is on record as 153% with Osteoblast [1], 180% in the test with Osteoblast [7], 149% in the test with Osteoblast [2] and 121.1% in the test with Osteoblast [3]. Moreover, the outcome with Osteoblast [6] was Active.
